Measured values: the supplement of paper PMC10307832

Tests used:
Assay in all cases: relative viability (nuclei count vs DMSO), 5 days (fraction); higher = more cells survive
201T = tested on: 201T
How it was run: (§1)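 Lung cancer cell lines, seeded in 1536-well plates, were treated the following day by pin tool with a single drug or with five library-drug doses (not always all listed) in √10 steps on top of a fixed anchor-drug dose. Cells were fixed and nuclei stained in one step after 5 days, and nuclei were counted. Relative viability is the nuclei count for treated wells divided by that for vehicle wells, reported as medians of duplicate plates.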

NCI-H727 = tested on: NCI-H727
How it was run: as §1

NCI-H596 = tested on: NCI-H596
How it was run: as §1

ABC-1 = tested on: ABC-1
How it was run: as §1

H3255 = tested on: H3255
How it was run: as §1

NCI-H1915 = tested on: NCI-H1915
How it was run: as §1

NCI-H441 = tested on: NCI-H441
How it was run: as §1

PC-3 [JPC-3] = tested on: PC-3 [JPC-3]
How it was run: as §1

NCI-H1944 = tested on: NCI-H1944
How it was run: as §1

CAL-12T = tested on: CAL-12T
How it was run: as §1

NCI-H2023 = tested on: NCI-H2023
How it was run: as §1

LC-2-ad = tested on: LC-2-ad
How it was run: as §1

BEN = tested on: BEN
How it was run: as §1

LCLC-97TM1 = tested on: LCLC-97TM1
How it was run: as §1

NCI-H661 = tested on: NCI-H661
How it was run: as §1

NCI-H2087 = tested on: NCI-H2087
How it was run: as §1

NCI-H650 = tested on: NCI-H650
How it was run: as §1

A-427 = tested on: A-427
How it was run: as §1

NCI-H1651 = tested on: NCI-H1651
How it was run: as §1

NCI-H460 = tested on: NCI-H460
How it was run: as §1

NCI-H1650 = tested on: NCI-H1650
How it was run: as §1

NCI-H520 = tested on: NCI-H520
How it was run: as §1

C=C1C(=O)O[C@@H](CCCCCCCC)[C@@H]1C(=O)O [C-75] + Cc1cc(Nc2cc(N3CCN(C)CC3)nc(Sc3ccc(NC(=O)C4CC4)cc3)n2)n[nH]1 [Tozasertib] (partner 0.1 µM)
relative viability (201T; first compound 0.08 µM): 0.985 | relative viability (201T; first compound 0.253 µM): 1.12 | relative viability (201T; first compound 0.8 µM): 1.04 | relative viability (201T; first compound 2.53 µM): 0.932 | relative viability (201T; first compound 8 µM): 1.02 | relative viability (NCI-H727; first compound 0.08 µM): 0.623 | relative viability (NCI-H727; first compound 0.253 µM): 0.623 | relative viability (NCI-H727; first compound 0.8 µM): 0.559 | relative viability (NCI-H727; first compound 8 µM): 0.674 | relative viability (NCI-H596; first compound 0.08 µM): 0.889 | relative viability (NCI-H596; first compound 0.253 µM): 1.09 | relative viability (NCI-H596; first compound 0.8 µM): 0.728 | relative viability (NCI-H596; first compound 2.53 µM): 0.83 | relative viability (NCI-H596; first compound 8 µM): 0.821 | relative viability (ABC-1; first compound 0.08 µM): 0.137 | relative viability (ABC-1; first compound 0.253 µM): 0.163 | relative viability (ABC-1; first compound 0.8 µM): 0.198 | relative viability (ABC-1; first compound 2.53 µM): 0.173 | relative viability (ABC-1; first compound 8 µM): 0.183 | relative viability (H3255; first compound 0.08 µM): 0.609 | relative viability (H3255; first compound 0.253 µM): 0.856 | relative viability (H3255; first compound 0.8 µM): 0.505 | relative viability (H3255; first compound 2.53 µM): 0.701 | relative viability (H3255; first compound 8 µM): 0.751 | relative viability (NCI-H1915; first compound 0.08 µM): 0.405 | relative viability (NCI-H1915; first compound 0.253 µM): 0.403 | relative viability (NCI-H1915; first compound 0.8 µM): 0.432 | relative viability (NCI-H1915; first compound 2.53 µM): 0.409 | relative viability (NCI-H1915; first compound 8 µM): 0.429 | relative viability (NCI-H441; first compound 0.08 µM): 0.624 | relative viability (NCI-H441; first compound 0.253 µM): 0.895 | relative viability (NCI-H441; first compound 0.8 µM): 0.713 | relative viability (NCI-H441; first compound 2.53 µM): 0.543 | relative viability (NCI-H441; first compound 8 µM): 0.729 | relative viability (PC-3 [JPC-3]; first compound 0.08 µM): 0.902 | relative viability (PC-3 [JPC-3]; first compound 0.253 µM): 0.921 | relative viability (PC-3 [JPC-3]; first compound 0.8 µM): 0.896 | relative viability (PC-3 [JPC-3]; first compound 2.53 µM): 0.858 | relative viability (PC-3 [JPC-3]; first compound 8 µM): 0.992 | relative viability (NCI-H1944; first compound 0.08 µM): 0.256 | relative viability (NCI-H1944; first compound 0.253 µM): 0.235 | relative viability (NCI-H1944; first compound 0.8 µM): 0.243 | relative viability (NCI-H1944; first compound 8 µM): 0.246 | relative viability (CAL-12T; first compound 0.08 µM): 0.281 | relative viability (CAL-12T; first compound 0.253 µM): 0.423 | relative viability (CAL-12T; first compound 0.8 µM): 0.312 | relative viability (CAL-12T; first compound 2.53 µM): 0.281 | relative viability (CAL-12T; first compound 8 µM): 0.345 | relative viability (NCI-H2023; first compound 0.08 µM): 0.407 | relative viability (NCI-H2023; first compound 0.253 µM): 0.443 | relative viability (NCI-H2023; first compound 0.8 µM): 0.302 | relative viability (NCI-H2023; first compound 2.53 µM): 0.384 | relative viability (NCI-H2023; first compound 8 µM): 0.409 | relative viability (LC-2-ad; first compound 0.08 µM): 0.515 | relative viability (LC-2-ad; first compound 0.253 µM): 0.503 | relative viability (LC-2-ad; first compound 0.8 µM): 0.443 | relative viability (LC-2-ad; first compound 2.53 µM): 0.418 | relative viability (LC-2-ad; first compound 8 µM): 0.399 | relative viability (BEN; first compound 0.08 µM): 0.494 | relative viability (BEN; first compound 0.253 µM): 0.605 | relative viability (BEN; first compound 0.8 µM): 0.544 | relative viability (BEN; first compound 2.53 µM): 0.484 | relative viability (BEN; first compound 8 µM): 0.612 | relative viability (LCLC-97TM1; first compound 0.08 µM): 0.23 | relative viability (LCLC-97TM1; first compound 0.253 µM): 0.319 | relative viability (LCLC-97TM1; first compound 0.8 µM): 0.22 | relative viability (LCLC-97TM1; first compound 2.53 µM): 0.16 | relative viability (LCLC-97TM1; first compound 8 µM): 0.187 | relative viability (NCI-H661; first compound 0.08 µM): 0.355 | relative viability (NCI-H661; first compound 0.253 µM): 0.347 | relative viability (NCI-H661; first compound 0.8 µM): 0.334 | relative viability (NCI-H661; first compound 2.53 µM): 0.288 | relative viability (NCI-H661; first compound 8 µM): 0.339 | relative viability (NCI-H2087; first compound 0.08 µM): 0.245 | relative viability (NCI-H2087; first compound 0.253 µM): 0.294 | relative viability (NCI-H2087; first compound 0.8 µM): 0.179 | relative viability (NCI-H2087; first compound 2.53 µM): 0.228 | relative viability (NCI-H2087; first compound 8 µM): 0.305 | relative viability (NCI-H650; first compound 0.08 µM): 0.759 | relative viability (NCI-H650; first compound 0.253 µM): 0.651 | relative viability (NCI-H650; first compound 0.8 µM): 0.718 | relative viability (NCI-H650; first compound 2.53 µM): 0.616 | relative viability (NCI-H650; first compound 8 µM): 0.62 | relative viability (A-427; first compound 0.08 µM): 0.219 | relative viability (A-427; first compound 0.253 µM): 0.264 | relative viability (A-427; first compound 0.8 µM): 0.221 | relative viability (A-427; first compound 2.53 µM): 0.199 | relative viability (A-427; first compound 8 µM): 0.175 | relative viability (NCI-H1651; first compound 0.08 µM): 0.694 | relative viability (NCI-H1651; first compound 0.253 µM): 0.995 | relative viability (NCI-H1651; first compound 0.8 µM): 0.706 | relative viability (NCI-H1651; first compound 2.53 µM): 0.688 | relative viability (NCI-H1651; first compound 8 µM): 0.682 | relative viability (NCI-H460; first compound 0.08 µM): 0.405 | relative viability (NCI-H460; first compound 0.253 µM): 0.798 | relative viability (NCI-H460; first compound 0.8 µM): 0.391 | relative viability (NCI-H460; first compound 2.53 µM): 0.657 | relative viability (NCI-H460; first compound 8 µM): 0.449 | relative viability (NCI-H1650; first compound 0.08 µM): 0.413 | relative viability (NCI-H1650; first compound 0.253 µM): 0.647 | relative viability (NCI-H1650; first compound 2.53 µM): 0.422 | relative viability (NCI-H1650; first compound 8 µM): 0.38 | relative viability (NCI-H520; first compound 0.08 µM): 0.428 | relative viability (NCI-H520; first compound 0.253 µM): 0.393 | relative viability (NCI-H520; first compound 0.8 µM): 0.395 | relative viability (NCI-H520; first compound 2.53 µM): 0.295 | relative viability (NCI-H520; first compound 8 µM): 0.46
